Results as given in patent EP2605769B1, “BENZOQUINONE DERIVATIVES FOR THE TREATMENT OF MITCHONDRIAL EYE DISEASES” (Santhera Pharmaceuticals (Schweiz) AG, priority 2010, dated 2012).
Where two headings read alike, the source gives them in different places.

Assays:
[1] = Literature plasma and brain levels after oral dosing (Torii et al., Nagai et al.); type: in vivo; details: rats, oral 10 mg/kg
Protocol: Beyond the high first-pass effect, a further drawback of compounds of formula (I), and again exemplified with compound IA as a representative for this compound class, is the fact, that these compounds are reaching the brain only in very limited amounts when given orally. For example, it is known from the literature (Torii H, Yoshida K, Kobayashi T, Tsukamoto T, Tanayama S. J Pharmacobiodyn. 1985 Jun;8(6):457-67) that an oral dose of 10 mg/kg of idebenone (compound IA) in rats leads to plasma levels of approximately 1000 ng/ml of total idebenone as measured by radioactivity after oral dosing of radioactive labeled compound IA. The total concentration means idebenone including its metabolites. […] The corresponding levels in the brain are 10 ng/ml of total idebenone (which again means including the metabolites), resulting in only 0.03 ng/ml for parent idebenone itself. As a result, the ratio of brain vs plasma levels is about 1%. This is in line with the findings of Nagai et al (Nagai Y, Yoshida K, Narumi S, Tanayama S, Nagaoka A. Brain distribution of idebenone and its effect on local cerebral glucose utilization in rats. Arch Gerontol Geriatr. 1989;8(3):257-72), where higher oral doses of idebenone (100 mg/kg) are leading to similar low brain- to-plasma ratio of 1-2% in rats.

[2] = Pharmacokinetic analysis in plasma and eye fluids after oral administration; type: in vivo, mice; details: for Kp: single oral 400 mg/kg; for AUC(0-t): read-out: AUC0-6h
Protocol: Pharmacokinetic analysis of test compounds after oral administration aims to determine its bioavailability and clearance in the plasma and in the eye fluids (aqueous and vitreous humor). The test compounds are quantified in the plasma and in the aqueous and vitreous humor after acute and repeated treatment (with different routes of administration). The time-dependent concentration is then determined and pharmacokinetic parameters (Cmax, AUC0-t, tmax) are calculated.
Experimental procedure: Male wild-type C57BL/6J mice (7 weeks old, about 25 g body weight) are individually housed in Makrolon type II cages with standard bedding and free access to food and water under a regular 12-hours light-dark cycle (8 a.m. to 8 p.m.). Mice receive single or daily repeated oral doses of the test compounds (ranging from 20 to 2000 mg/kg of body weight) or the vehicle administered though the diet or by gavage at the end of the light phase. The treatment can be followed by a washout period. Samples for pharmacokinetic analysis are taken at different time intervals following compound administration. Mice are anesthetized by 5% isofluran inhalation in an induction chamber and sacrificed by cervical dislocation. Blood is collected from the head cut for plasma extraction. Eye balls are dissected out to collect aqueous and vitreous humor. Samples are snap frozen in liquid nitrogen and stored (-80°C) until analyzed by LC-MS/MS and accordingly to standardized procedures. All mouse procedures are performed in accordance with the Swiss regulation and under a license approved by the "Kantonales Veterinäramt Basel-Land".
The pharmacokinetic profile of idebenone (compound IA) was assessed, following a single oral gavage dose to male mice. […] Furthermore, the ratio (vitreous humor /plasma and aqueous humor/plasma) appeared to be independent of the time post dose, consistent with a lack of accumulation of idebenone in the eye. The overall extent of exposure to idebenone in the vitreous humor, as measured by AUC0-6h, represented about 2 % of that observed in plasma (vitreous/plasma ratio; Table 8). Similarly, the extent of exposure to idebenone in the aqueous humor represented about 3 % of that observed in plasma (aqueous/plasma ratio; Table 8).

[3] = system: C57BL/6J mice; assay: Optomotor testing of visual acuity in the rotenone mouse model; type: in vivo; details: for Number of counterclockwise head movements/ 2 min / Number of clockwise head movements/ 2 min: 5 weeks after injection, ± SEM; for Number of counterclockwise head movements/ 2 min: non-injected eye; for Number of clockwise head movements/ 2 min: rotenone-injected eye; for Number of head movements: 2000 mg/kg in diet, mean ± SEM
Protocol: Since RGC loss is associated with visual acuity impairment, we tested whether the neuroprotective effect of the test compound IA also correlated with recovery of visual function. For this purpose, visual acuity was detected by quantifying the optomotor response of animals subjected to the test system described above. The optomotor response was measured as previously described (see […]., et al. Vis. Res., 2005). Mice were placed on a central platform surrounded by a motorized drum with black and white vertical stripes that can rotate in both, clockwise and counterclockwise, direction at different velocities (which can be adjusted to evoke the optimal optokinetic response), and under constant light levels. Mice were allowed to habituate for 5 min to the experimental conditions before stripes were rotated alternately clockwise and counterclockwise, for 2 min in each direction and with an interval of 30 s between the two rotations. The mice were recorded on a computer using a digital video camera mounted above the apparatus to subsequently score the number of head movements by manual counting. Head movements were scored only when the angular speed of the head turn corresponds to that of the drum rotation. After aquisition and encoding by an investigator, a second, blinded investigator conducted all assessments. Codes were broken upon completion of data acquisition by a third investigator. Each mouse was tested at different time points and the apparatus will be cleaned between mice. Data will be presented as mean ± SEM. Paired Student's t-test and analysis of variance (ANOVA) will be used to compare non-normalized data. Statistical significance will be set at p≤0.05(*), p≤0.01(**) and p≤0.001 (***). Table 7: Effect of idebenone pre-treatment on visual acuity in an in vivo mouse model for LHON. Quantification of mouse visual acuity based on the optomotor response in mice pre-treated for 3 weeks with vehicle and idebenone 2000 mg/kg in diet. […] The optomotor response was examined in both clockwise (a) and counterclockwise (b) directions of motion, clockwise and counterclockwise tracking head movements reflecting visual acuity of the rotenone-injected (left) and non-injected (right) eye, respectively.

[4] = correction factor calculated from Torii et al
[5] = C57BL/6J, mouse, Aqueous Humor, single oral administration at 400 mg/kg, male mice
[6] = C57BL/6J, mouse, Plasma, single oral administration at 400 mg/kg, male mice
[7] = C57BL/6J, mouse, Vitreous Humor, single oral administration at 400 mg/kg, male mice

SMILES: COC1=C(OC)C(=O)C(CCCCCCCCCCO)=C(C)C1=O [Compound IA, Idebenone]
- Kp ([1]; rat, brain / plasma, read-out: ratio of brain vs plasma levels): ~0.01
- idebenone plasma levels (unmetabolized parent) [1, 4]: 3 ng/mL
- levels in the brain of parent idebenone [1, 4]: 0.03 ng/mL
- Kp ([2]; C57BL/6J, mouse, aqueous humor / plasma, male mice, read-out: extent of exposure in the aqueous humor relative to plasma): ~0.03
- Kp ([2]; C57BL/6J, mouse, vitreous humor / plasma, male mice, read-out: extent of exposure in the vitreous humor (AUC0-6h) relative to plasma): ~0.02
- Cmax [2, 5]: 86.2 ng/mL
- Tmax [2, 5]: 15 min
- AUC(0-t) [2, 5]: 62.6 ng·h/mL
- AUC(0-inf) [2, 6]: 1960 ng·h/mL
- Cmax [2, 6]: 1070 ng/mL
- Tmax [2, 6]: 15 min
- half-life [2, 6]: 102 min
- AUC(0-t) [2, 6]: 1860 ng·h/mL
- Cmax [2, 7]: 37.9 ng/mL
- Tmax [2, 7]: 15 min
- AUC(0-t) [2, 7]: 38.1 ng·h/mL
- λz ([2]; Plasma, single oral administration at 400 mg/kg, male mice): 0.409 h⁻¹
- time of maximum in vitreous and aqueous humors (up-take into the eye) ([2]; oral dietary or gavage administration, mouse, post-dose): < 15 min
- time of maximum concentration in plasma, vitreous and aqueous humors ([2]; single oral dose of 400 mg/kg, first sampling time post-dose): 15 min
- Number of counterclockwise head movements/ 2 min ([3]; 2000 mg/kg + rotenone 1 mM): 12.5 ± 4.5 head movements/2 min
- Number of clockwise head movements/ 2 min ([3]; 2000 mg/kg + rotenone 1 mM): 9 ± 2 head movements/2 min
- Number of counterclockwise head movements/ 2 min ([3]; 2000 mg/kg + rotenone 5 mM): 10.5 ± 0.6 head movements/2 min
- Number of clockwise head movements/ 2 min ([3]; 2000 mg/kg + rotenone 5 mM): 3.5 ± 1.5 head movements/2 min
- Number of head movements ([3]; time post-injection 1 day): 0 ± 0 (n=7) head movements/2 min
- Number of head movements ([3]; time post-injection 7 days): 0.5 ± 0.5 (n=7) head movements/2 min
- Number of head movements ([3]; time post-injection 14 days): 1.8 ± 0.8 (n=7) head movements/2 min
- Number of head movements ([3]; time post-injection 21 days): 2.8 ± 1.4 (n=7) head movements/2 min
- Number of head movements ([3]; time post-injection 28 days): 2.8 ± 1.4 (n=7) head movements/2 min
- Number of head movements ([3]; time post-injection 35 days): 3.5 ± 1.5 (n=7) head movements/2 min
- Number of head movements ([3]; time post-injection 56 days): 6 ± 2.1 (n=4) head movements/2 min
- Number of head movements ([3]; time post-injection -7 days): 9.7 ± 0.7 (n=7) head movements/2 min
